These results are taken from patent US20100256145A1, “USE OF KCNQ POTASSIUM CHANNEL OPENERS FOR REDUCING SYMPTOMS OF OR TREATING DISORDERS OR CONDITIONS WHEREIN THE DOPAMINERGIC SYSTEM IS DISRUPTED” (H. LUNDBECK A/S, priority 2007, published 2010).

A word on the Ki: it is a dissociation constant, usually derived from enzyme kinetics or from competition with a known ligand.

SMILES strings stand for the structures. Marks after values point to notes of the source that are not given here.

The subject of one data set is basal locomotor activity. The data set is described as follows: Basal locomotor activity inhibition (motility inhibition) in the rat. In kind it is in vivo. The following applies: basal locomotor activity without stimulant (sedative properties), std. dev. in brackets.
In data set [1] the target is T1, noradrenergic α1A receptor (UniProt P18130).
T1 sequence (P18130 1-466): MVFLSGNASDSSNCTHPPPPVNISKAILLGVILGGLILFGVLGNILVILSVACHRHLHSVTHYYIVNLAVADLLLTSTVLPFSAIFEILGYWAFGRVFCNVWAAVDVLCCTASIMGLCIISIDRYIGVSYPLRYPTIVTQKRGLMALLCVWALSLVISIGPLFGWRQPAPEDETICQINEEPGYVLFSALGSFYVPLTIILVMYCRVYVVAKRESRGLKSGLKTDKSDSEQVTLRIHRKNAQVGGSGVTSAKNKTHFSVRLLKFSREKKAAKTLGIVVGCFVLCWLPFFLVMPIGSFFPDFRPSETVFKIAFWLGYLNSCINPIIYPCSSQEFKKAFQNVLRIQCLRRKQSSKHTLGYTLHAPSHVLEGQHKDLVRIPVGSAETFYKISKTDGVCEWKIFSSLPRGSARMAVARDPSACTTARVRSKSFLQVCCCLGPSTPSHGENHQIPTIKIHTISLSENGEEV
The data set is described as follows: 3H-Prazosin binding assay, receptor expressed in baby hamster kidney cells. To be noted: read-out: Ki, affinity towards noradrenergic α1A receptors.

The subject of data set [2] is social behaviours in the Mutual Resident Intruder rat test. Description: Mutual Resident Intruder rat test. The following applies: for % of time Agonistic behaviour: sum of defensive and aggressive behaviour.
Method: Subjects. 5 week old male Wistar rats (Harlan, Germany) were used. The animals were housed in groups of four animals per cage and kept under a 12 h/12 h light dark rhythm (start of the dark phase at 2:00 p.m., CET), at 20° C. room temperature and 60% humidity. During the whole study, standard diet and tap water was provided ad libitum.
Experimental procedure. […] Therefore, half of the cage is the home territory of each animal. At test time, the wall is removed from the cage so that the animals can interact with each other for 15 minutes. Both animals are from the same test group. The cage is illuminated by dim red light. The test starts 1 hour after beginning of the dark phase. All animals are marked individually by means of black symbols on their back. Behaviour is registered by video. Each animal is tested once.
Analyses. In both the TE test and the MRI test, the portion of time (%) spent in non-social, friendly, defensive, aggressive or agonistic (sum of defensive and aggressive behaviour) behaviour was compared across the experimental groups against the relevant control group by means of Analysis of Variance (ANOVA) (one-factor).
Setting [3] is: 2 mg/kg s.c. 30 min before test.
Setting [4] is: 10 mg/kg s.c. 30 min before test.

Method for basal locomotor activity: Subjects. Male Wistar rats (Taconic, Denmark) weighing 170-240 g are used. The animals are housed under a 12-hr light/dark cycle under controlled conditions for regular in-door temperature (21±2° C.) and humidity (55±5%) with food and tap water available ad libitum.
Experimental procedure. The experiment is made in normal light conditions in an undisturbed room. […] Immediately after injection of the stimulant, the rats are placed individually in the test cages that are placed in a U-frame, equipped with 4 infrared light sources and photocells. The light beams cross the cage 4 cm above the cage floor. Recording of a motility count requires interruption of adjacent light beams, thus avoiding counts induced by stationary movements of the rat. Motility (counts) is recorded for a period of 2 hours. […] The 100 percent effect of stimulant drug is accordingly calculated to be total motility counts minus baseline. […] The percent responses are converted to percent inhibition from which ED50 values are calculated by means of log-probit analyses. In a parallel set of data, the potential sedative properties (exemplified by basal locomotor activity inhibition) of the test compounds are evaluated using essentially the same procedure with the exception of not administering the stimulant drug at the initiation of locomotor assessment.

For `CCOC(=O)Nc1ccc(NCc2ccc(F)cc2)cc1N` [Compound 1, reference compound], the “Motility inhibition ED50 (mg/kg) ± std. dev.” value with basal locomotor activity is over 8.1 mg/kg. Moreover, the Ki in data set [1] was 2 µM. In addition, in data set [2] (setting [3]), the “% of time Aggressive behaviour” value is on record as 16.1 % of time, the “% of time Defensive behaviour” value is recorded as 16.3 % of time, the “% of time Friendly behaviour” value is 3.4 % of time and the “% of time Non-social behaviour” value was 64.2 % of time. The “% of time Agonistic behaviour” value in data set [2] (setting [3]) was 32.4 % of time. Moreover, in data set [2] (setting [4]), the “% of time Aggressive behaviour” value was 4.2*** % of time, the “% of time Defensive behaviour” value is given as 3.6*** % of time, the “% of time Friendly behaviour” value is 4.9* % of time and the “% of time Non-social behaviour” value is 87.3*** % of time. Moreover, the “% of time Agonistic behaviour” value in data set [2] (setting [4]) is given as 7.8*** % of time.
